Reference: US20110318768A1, “METHOD FOR DETERMINING SENSITIVITY OF TUMOR CELLS TO TYROSINE KINASE INHIBITOR AND COMPUTER PROGRAM PRODUCT” (SYSMEX CORPORATION, priority 2010, published 2011)

Experiments:
[1] = system: tyrosine kinase in cell membrane fraction of BT-483; assay: Tyrosine kinase activity inhibition rate in cell membrane fraction (Poly-Glu4-Tyr substrate); type: biochemical
In short: (§1)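 Each inhibitor is tested at a single 25 μM against membrane-fraction kinase (5 μg/ml protein) with 25 μM ATP. Substrate is biotinylated Poly-Glu4-Tyr on NeutrAvidin wells, 37 °C for 60 min. Signal comes from anti-pTyr-HRP chemiluminescence, relative to DMSO control.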

[2] = system: tyrosine kinase in cell membrane fraction of HCC1419; assay: as above; type: biochemical
In short: as §1

[3] = system: tyrosine kinase in cell membrane fraction of HCC1569; assay: as above; type: biochemical
In short: as §1

[4] = system: tyrosine kinase in cell membrane fraction of HCC202; assay: as above; type: biochemical
In short: as §1

[5] = system: tyrosine kinase in cell membrane fraction of MCF7; assay: as above; type: biochemical
In short: as §1

[6] = system: tyrosine kinase in cell membrane fraction of MDA-MB-157; assay: as above; type: biochemical
In short: as §1

[7] = system: tyrosine kinase in cell membrane fraction of MDA-MB-231; assay: as above; type: biochemical
In short: as §1

[8] = system: tyrosine kinase in cell membrane fraction of MDA-MB-436; assay: as above; type: biochemical
In short: as §1

[9] = system: tyrosine kinase in cell membrane fraction of T47D; assay: as above; type: biochemical; conditions: 25 μM kinase inhibitor, 25 μM ATP
In short: as §1

[10] = system: tyrosine kinase in cell membrane fraction of UACC812; assay: as above; type: biochemical
In short: as §1

[11] = system: tyrosine kinase in cell membrane fraction of UACC893; assay: as above; type: biochemical
In short: as §1

[12] = system: tyrosine kinase of BT-474; conditions: US 2011027809; cited from earlier work
[13] = 25 μM kinase inhibitor, 25 μM ATP

SMILES: COc1cc2ncnc(Nc3ccc(Oc4ccccc4)cc3)c2cc1OC [Inhibitor 10, 4-(4′-phenoxyanilino)-6,7-dimethoxyquinazoline]
- Example 1 Inhibitory capacity of Src inhibitor [1]: high (the term “high” means a cell line whose inhibition rate of the Src inhibitor is more than the threshold value)
- Inhibition rate [1, 13]: 78.5%
- Example 1 Inhibitory capacity of Src inhibitor [2]: low (the term “low” means a cell line whose inhibition rate of the Src inhibitor is lower than the threshold value (=43.4%))
- Inhibition rate [2, 13]: 36.3%
- Example 1 Inhibitory capacity of Src inhibitor [3]: high (the term “high” means a cell line whose inhibition rate of the Src inhibitor is more than the threshold value)
- Inhibition rate [3, 13]: 71.3%
- Example 1 Inhibitory capacity of Src inhibitor [4]: low (the term “low” means a cell line whose inhibition rate of the Src inhibitor is lower than the threshold value (=43.4%))
- Inhibition rate [4, 13]: 26.3%
- Example 1 Inhibitory capacity of Src inhibitor [5]: high (the term “high” means a cell line whose inhibition rate of the Src inhibitor is more than the threshold value)
- Inhibition rate [5, 13]: 49.2%
- Example 1 Inhibitory capacity of Src inhibitor [6]: high (the term “high” means a cell line whose inhibition rate of the Src inhibitor is more than the threshold value)
- Inhibition rate [6, 13]: 60.3%
- Example 1 Inhibitory capacity of Src inhibitor [7]: high (the term “high” means a cell line whose inhibition rate of the Src inhibitor is more than the threshold value)
- Inhibition rate [7, 13]: 63.6%
- Example 1 Inhibitory capacity of Src inhibitor [8]: high (the term “high” means a cell line whose inhibition rate of the Src inhibitor is more than the threshold value)
- Inhibition rate [8, 13]: 44.9%
- Inhibition rate [9]: 42.3%
- Inhibition rate ([10]; UACC812, 25 μM kinase inhibitor, 25 μM ATP): 81.5%
- Example 1 Inhibitory capacity of Src inhibitor ([10]; UACC-812): high (the term “high” means a cell line whose inhibition rate of the Src inhibitor is more than the threshold value)
- Inhibition rate ([11]; UACC893, 25 μM kinase inhibitor, 25 μM ATP): 25.6%
- Example 1 Inhibitory capacity of Src inhibitor ([11]; UACC-893): low (the term “low” means a cell line whose inhibition rate of the Src inhibitor is lower than the threshold value (=43.4%))
- tyrosine kinase activity inhibitory effects caused by the Src inhibitor [12]: high
